Source: patent US8999973B2, “Thieno[3,2-d]pyrimidine derivatives having inhibitory activity on protein kinases” (Hanmi Science Co., Ltd, priority 2010, dated 2015)
Substitutions are numbered along the chain they refer to.

Assays:
Bcr-Abl^wt = target: T1, Bcr-Abl^wt (Homo sapiens, UniProt P00519); assay: Kinase activation assay (IC50), fluorescence polarization tyrosine kinase assay kit; format: biochemical; settings: kinase domain (Millipore), Poly (Glu, Tyr) 4:1 substrate, FP readout
T1 construct: purchased Millipore
T1 sequence (P00519 242-493 limits assumed): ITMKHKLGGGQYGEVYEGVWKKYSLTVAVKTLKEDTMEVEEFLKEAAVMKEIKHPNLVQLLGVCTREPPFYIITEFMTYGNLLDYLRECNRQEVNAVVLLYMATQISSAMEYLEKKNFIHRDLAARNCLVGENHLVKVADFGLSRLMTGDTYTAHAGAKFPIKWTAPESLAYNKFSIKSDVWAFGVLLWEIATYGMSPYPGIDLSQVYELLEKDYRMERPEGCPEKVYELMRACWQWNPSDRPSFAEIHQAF
Experimental: (§1) Test 1: Kinase Activation Assay (IC50)
(§2) A kinase domain (Millipore) comprising the entire cytoplasmic sequences of Bcr-Abl^wt and Bcr-Abl^T315I mutation kinases and a tyrosine kinase assay kit (Panvera, P2837) were used to measure an inhibitory activation on Bcr-abl. Other kinases such as FGFR, Flt, KDR, PDGFR, Fms, Kit, Raf, Tie2, Src, and Ret were also measured by the same method. In order to prepare a sample, the each compound obtained in Examples 1 to 128 was diluted 10 times with a kinase buffer to a concentration of 10˜0.0001 μM.
(§3) The each kinase was diluted with a kinase buffer to a concentration of 30˜300 ng/assay by using the each Kd value. The kinase buffer consisted of 100 mM HEPES (PH 7.4), 25 mM MgCl2, 10 mM MnCl2, and 250 μM Na3VO4, being kept refrigerated after filtered.
(§4) The test was conducted in 96 well polystyrene round bottom plates. First, 10 μL of the diluted sample was combined with 10 μL of the enzyme solution at room temperature for 10 minutes using a shaker. 10 μL of Poly (Glu, Tyr) 4:1 (Sigma) matrix solution in an appropriate concentration and 10 μL of ATP solution (5˜300 μM) were added to the sample and subjected to a reaction at room temperature for 60 minutes in a shaker. After 60 minutes, an EDTA solution was added thereto to complete the kinase reaction and the reaction mixture was left in a shaker for 5 minutes at room temperature. A tracer, an antibody, and a fluorescence polarization (FP) diluted reaction solution were mixed at a ratio of 1:1:3 to prepare a detecting solution, 50 μL of which was added to the each sample and subjected to a reaction at room temperature for 30 minutes in a shaker. As fluorescing, light was blocked out and the FP value was measured using a FP instrument (excitation wavelength: 485 nm, and emission wavelength: 530 nm).
(§5) And the inhibition on kinase reaction was calculated for the sample in the range of 0˜100% as compared to the control group, and the concentration on x-axis at 50% inhibition was obtained as an inhibitory concentration (IC50) value.
(§6) 50% inhibitory concentration (IC50) Y=bottom+(top−bottom)/(1+10exp(X−log IC50)

Bcr-Abl^T315I = target: T2, Bcr-Abl^T315I (Homo sapiens, UniProt P00519, T315I); assay: as above; format: biochemical; settings: T315I mutation kinase domain (Millipore), Poly (Glu, Tyr) 4:1 substrate, FP readout
T2 construct: purchased Millipore
T2 sequence (P00519 242-493 T315I limits assumed): T1 sequence (P00519 242-493 limits assumed) with T74I
Experimental: as §1, §2, §3, §4, §5, §6

SMILES | IC50 (Bcr-Abl^wt) | IC50 (Bcr-Abl^T315I)
Cc1ccc(NC(=O)c2cc(C3CC3)on2)cc1NC(=O)c1csc2c(N)ncnc12 [Example 67, N-(3-(4-aminothieno[3,2-d]pyrimidine-7-carboxyamido)-4-methylphenyl)-5-cyclopropylisoxazol-3-carboxamide] | 1 to 100 nM | 1000 to 10000 nM
Cc1cc(C(=O)Nc2ccc(C)c(NC(=O)c3csc4c(N)ncnc34)c2)n(Cc2ccc(F)cc2)n1 [Example 68, 4-amino-N-(5-(1-(4-fluorobenzyl)-3-methyl-1H-pyrazole-5-carboxyamido)-2-methylphenyl)thieno[3,2-d]pyrimidine-7-carboxamide] | 1000 to 10000 nM | 1000 to 10000 nM
Cc1ccc(NC(=O)c2cccc(C(F)(F)F)c2)cc1NC(=O)c1csc2c(NC3CCCC3)ncnc12 [Example 71, 4-(cyclopentylamino)-N-(2-methyl-5-(3-(trifluoromethyl)benzamido)phenyl)thieno[3,2-d]pyrimidine-7-carboxamide] | 1 to 100 nM | 1000 to 10000 nM
Cc1ccc(NC(=O)c2ccc(CN3CC[C@H](N(C)C)C3)c(C(F)(F)F)c2)cc1NC(=O)c1csc2c(NC3CC3)ncnc12 [Example 76, (S)-4-(cyclopropylamino)-N-(5-(4-((3-(dimethylamino)pyrrolidin-1-yl)methyl)-3-(trifluoromethyl)benzoamido)-2-methylphenyl)thieno[3,2-d]pyrimidine-7-carboxamide] | 1 to 100 nM | 1 to 100 nM
CNc1ncnc2c(C(=O)Nc3cc(NC(=O)c4cc(-n5cnc(C)c5)cc(C(F)(F)F)c4)ccc3C)csc12 [Example 78, N-(2-methyl-5-(3-(4-methyl-1H-imidazole-1-yl)-5-(trifluoromethyl)benzoamido)phenyl)-4-(methylamino)thieno[3,2-d]pyrimidine-7-carboxamide] | 1 to 100 nM | 100 to 1000 nM
Cc1ccc(NC(=O)c2cc(-n3ccnc3C)cc(C(F)(F)F)c2)cc1NC(=O)c1csc2c(NC3CC3)ncnc12 [Example 83, 4-(cyclopropylamino)-N-(2-methyl-5-(3-(2-methyl-1H-imidazole-1-yl)-5-(trifluoromethyl)benzoamido)phenyl)thieno[3,2-d]pyrimidine-7-carboxamide] | 1 to 100 nM | 1 to 100 nM
Cc1ccc(NC(=O)c2cc(N3CCOCC3)cc(C(F)(F)F)c2)cc1NC(=O)c1csc2c(NC3CC3)ncnc12 [Example 86] | 1 to 100 nM | 100 to 1000 nM
Cc1ccc(NC(=O)c2ccc(CN3CCCN(C)CC3)c(C(F)(F)F)c2)cc1NC(=O)c1csc2c(NC3CC3)ncnc12 [Example 87, 4-(cyclopropylamino)-N-(2-methyl-5-(4-((4-methyl-1,4-diazepan-1-yl)methyl)-3-(trifluoromethyl)benzoamido)phenyl)thieno[3,2-d]pyrimidine-7-carboxamide] | 1 to 100 nM | 1 to 100 nM
Cc1ccc(NC(=O)c2cc(N3CCCN(C)CC3)cc(C(F)(F)F)c2)cc1NC(=O)c1csc2c(NC3CC3)ncnc12 [Example 93, 4-(cyclopropylamino)-N-(2-methyl-5-(3-(4-methyl-1,4-diazepan-1-yl)-5-(trifluoromethyl)benzoamido)phenyl)thieno[3,2-d]pyrimidine-7-carboxamide] | 1 to 100 nM | 1 to 100 nM
CN(C)[C@H]1CCN(c2cc(C(=O)Nc3ccc(F)c(NC(=O)c4csc5c(NC6CC6)ncnc45)c3)cc(C(F)(F)F)c2)C1 [Example 107, (S)-4-(cyclopropylamino)-N-(5-(3-(3-(dimethylamino)pyrrolidine-1-yl)-5-(trifluoromethyl)benzoamido)-2-fluorophenyl)thieno[3,2-d]pyrimidine-7-carboxamide] | 1 to 100 nM | 100 to 1000 nM
CCN1CCN(c2cc(C(=O)Nc3ccc(C)c(NC(=O)c4csc5c(NC6CC6)ncnc45)c3)cc(C(F)(F)F)c2)CC1 [Example 110, 4-(cyclopropylamino)-N-(5-(3-(4-ethylpiperazin-1-yl)-5-(trifluoromethyl)benzoamido)-2-methylphenyl)thieno[3,2-d]pyrimidine-7-carboxamide] | 1 to 100 nM | 100 to 1000 nM
Cc1ccc(NC(=O)c2cc(N3CCC[C@H]3C)cc(C(F)(F)F)c2)cc1NC(=O)c1csc2c(NC3CC3)ncnc12 [Example 113, (R)-4-(cyclopropylamino)-N-(2-methyl-5-(3-(2-methylpyrrolidine-1-yl)-5-(trifluoromethyl)benzoamido)phenyl)thieno[3,2-d]pyrimidine-7-carboxamide] | 100 to 1000 nM | 100 to 1000 nM
Cc1ccc(NC(=O)c2cc(NC3CCN(C)CC3)cc(C(F)(F)F)c2)cc1NC(=O)c1csc2c(NC3CC3)ncnc12 [Example 116, 4-(cyclopropylamino)-N-(2-methyl-5-(3-(1-methylpiperidine-4-ylamino)-5-(trifluoromethyl)benzoamido)phenyl)thieno[3,2-d]pyrimidine-7-carboxamide] | 1 to 100 nM | 1 to 100 nM
Cc1cn(-c2cc(C(=O)Nc3ccc(F)c(NC(=O)c4csc5c(NC6CC6)ncnc45)c3)cc(C(F)(F)F)c2)cn1 [Example 121, 4-(cyclopropylamino)-N-(2-fluoro-5-(3-(4-methyl-1H-imidazole-1-yl)-5-(trifluoromethyl)benzoamido)phenyl)thieno[3,2-d]pyrimidine-7-carboxamide] | 1 to 100 nM | 1 to 100 nM
